Measurements published in US10407467B2, “Polymyxin derivatives and their use in combination therapy together with different antibiotics” (priority 2013, dated 2019).
Read-outs that look alike come from different tables or passages of the source. Marks after values point to notes of the source that are not given here.

What was measured:
Acinetobacter baumannii [1] = assay: MIC, compound in combination with a second agent (broth microdilution); type: cell-based
How it was run: (§1)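 Compound and second agent (e.g. rifampicin) were combined 1:1 w/w, compound weighed as its TFA or sulphate salt. Inoculum was a direct colony suspension from 18-24 hour Mueller-Hinton agar at 0.5 McFarland. MIC is the total drug concentration; lower of duplicates reported, modal value when tested repeatedly.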

Escherichia coli [2] = assay: as above; type: cell-based
How it was run: as §1

Klebsiella pneumoniae [3] = assay: as above; type: cell-based; settings: for MIC K. pneumoniae ATCC 4352 / MIC K. pneumoniae CCUG 59349: total drug concentration
How it was run: as §1

Pseudomonas aeruginosa [4] = assay: as above; type: cell-based; settings: for MIC P. aeruginosa ATCC 10145: total drug concentration
How it was run: as §1

Acinetobacter baumannii [5] = assay: MIC, sole activity (no second agent); type: cell-based
How it was run: (§2)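 Inoculum: direct colony suspension (18-24 h MH agar), 0.5 McFarland. Medium: cation-adjusted MHB. Up to 4 strains/species; reported relative to Polymyxin B.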

Escherichia coli [6] = assay: MIC, sole activity (no second agent); type: cell-based
How it was run: as §2

Klebsiella pneumoniae [7] = assay: MIC, sole activity (no second agent); type: cell-based
How it was run: as §2

Pseudomonas aeruginosa [8] = assay: MIC, sole activity (no second agent); type: cell-based
How it was run: as §2

[9] = test system: Escherichia coli isolate ATCC25922; settings: subcutaneous BID
[10] = 1:1 combination with Aztreonam, total drug concentration
[11] = Table 6A, no second agent, different supplier of Cation-adjusted MHB

Polymyxin B [reference compound]
MIC A. baumannii ATCC BAA-747 (Acinetobacter baumannii [1]; 1:1 (wt:wt) combination with Rifampicin, MIC = total drug concentration, strain ATCC BAA-747): 0.125 micrograms/mL
MIC A. baumannii CCUG57249 (Acinetobacter baumannii [1]; 1:1 (wt:wt) combination with Rifampicin, MIC = total drug concentration, strain CCUG57249): 0.25 micrograms/mL
MIC A. baumannii NCTC 13423 (Acinetobacter baumannii [1]; 1:1 (wt:wt) combination with Rifampicin, MIC = total drug concentration, strain NCTC 13423): 0.125 micrograms/mL
MIC A. baumannii NCTC 13424 (Acinetobacter baumannii [1]; 1:1 (wt:wt) combination with Rifampicin, MIC = total drug concentration, strain NCTC 13424): 0.5 micrograms/mL
MIC A. baumannii NCTC 13424 (Acinetobacter baumannii [1]; [10]): 1 micrograms/mL
MIC A. baumannii NCTC 13424 (Acinetobacter baumannii [1]; A. baumannii NCTC 13424, 1:1 combination with Azithromycin, total drug concentration): 1 micrograms/mL
MIC A. baumannii NCTC 13424 (Acinetobacter baumannii [1]; A. baumannii NCTC 13424, 1:1 combination with Novobiocin, total drug concentration): 0.125 micrograms/mL
MIC E. coli ATCC25922 (Escherichia coli [2]; 1:1 (wt:wt) combination with Rifampicin, MIC = total drug concentration, strain ATCC25922): 0.25 micrograms/mL
MIC E. coli NCTC9001 (Escherichia coli [2]; 1:1 (wt:wt) combination with Rifampicin, MIC = total drug concentration, strain NCTC9001): 0.5 micrograms/mL
MIC E. coli ATCC25922 (Escherichia coli [2]; [10]): 0.125 micrograms/mL
MIC E. coli NCTC 13441 (Escherichia coli [2]; [10]): 1 micrograms/mL
MIC E. coli ATCC25922 (Escherichia coli [2]; E. coli ATCC25922, 1:1 combination with Azithromycin, total drug concentration): 0.25 micrograms/mL
MIC E. coli ATCC25922 (Escherichia coli [2]; E. coli ATCC25922, 1:1 combination with Fusidic acid, total drug concentration): 2 micrograms/mL
MIC E. coli ATCC25922 (Escherichia coli [2]; E. coli ATCC25922, 1:1 combination with Novobiocin, total drug concentration): 0.5 micrograms/mL
MIC E. coli ATCC25922 (Escherichia coli [2]; E. coli ATCC25922, 1:1 combination with Oxacillin, total drug concentration): 2 micrograms/mL
MIC E. coli NCTC 13441 (Escherichia coli [2]; E. coli NCTC 13441, 1:1 combination with Azithromycin, total drug concentration): 1 micrograms/mL
MIC E. coli NCTC 13441 (Escherichia coli [2]; E. coli NCTC 13441, 1:1 combination with Novobiocin, total drug concentration): 1 micrograms/mL
MIC K. pneumoniae ATCC-BAA-2146 (Klebsiella pneumoniae [3]; 1:1 (wt:wt) combination with Rifampicin, MIC = total drug concentration, strain ATCC-BAA-2146): 1 micrograms/mL
MIC K. pneumoniae CCUG-59348 (Klebsiella pneumoniae [3]; 1:1 (wt:wt) combination with Rifampicin, MIC = total drug concentration, strain CCUG-59348): 1 micrograms/mL
MIC K. pneumoniae NCTC 13438 (Klebsiella pneumoniae [3]; 1:1 (wt:wt) combination with Rifampicin, MIC = total drug concentration, strain NCTC 13438): 1 micrograms/mL
MIC K. pneumoniae ATCC 4352 (Klebsiella pneumoniae [3]; 1:1 combination with Aztreonam): ≤0.06 micrograms/mL
MIC K. pneumoniae CCUG 59349 (Klebsiella pneumoniae [3]; 1:1 combination with Aztreonam): 2 micrograms/mL
MIC K. pneumoniae ATCC 4352 (Klebsiella pneumoniae [3]; K. pneumoniae ATCC4352, 1:1 combination with Azithromycin): 0.25 micrograms/mL
MIC K. pneumoniae ATCC 4352 (Klebsiella pneumoniae [3]; K. pneumoniae ATCC4352, 1:1 combination with Fusidic acid): 1 micrograms/mL
MIC K. pneumoniae ATCC 4352 (Klebsiella pneumoniae [3]; K. pneumoniae ATCC4352, 1:1 combination with Novobiocin): 0.25 micrograms/mL
MIC K. pneumoniae ATCC 4352 (Klebsiella pneumoniae [3]; K. pneumoniae ATCC4352, 1:1 combination with Oxacillin): 4 micrograms/mL
MIC K. pneumoniae CCUG 59349 (Klebsiella pneumoniae [3]; K. pneumoniae CCUG 59349, 1:1 combination with Azithromycin): 2 micrograms/mL
MIC K. pneumoniae CCUG 59349 (Klebsiella pneumoniae [3]; K. pneumoniae CCUG 59349, 1:1 combination with Novobiocin): 1 micrograms/mL
MIC P. aeruginosa ATCC 27853 (Pseudomonas aeruginosa [4]; 1:1 (wt:wt) combination with Rifampicin, MIC = total drug concentration, strain ATCC 27853): 0.5 micrograms/mL
MIC P. aeruginosa ATCC CRM-9027 (Pseudomonas aeruginosa [4]; 1:1 (wt:wt) combination with Rifampicin, MIC = total drug concentration, strain ATCC CRM-9027): 0.25 micrograms/mL
MIC P. aeruginosa ATCC-47 (Pseudomonas aeruginosa [4]; 1:1 (wt:wt) combination with Rifampicin, MIC = total drug concentration, strain ATCC-47): 0.5 micrograms/mL
MIC P. aeruginosa CCUG 59626 (Pseudomonas aeruginosa [4]; 1:1 (wt:wt) combination with Rifampicin, MIC = total drug concentration, strain CCUG 59626): 0.5 micrograms/mL
MIC P. aeruginosa ATCC 10145 (Pseudomonas aeruginosa [4]; 1:1 combination with Aztreonam): 1 micrograms/mL
MIC P. aeruginosa ATCC 10145 (Pseudomonas aeruginosa [4]; P. aeruginosa ATCC 10145, 1:1 combination with Azithromycin): 1 micrograms/mL
MIC P. aeruginosa ATCC 10145 (Pseudomonas aeruginosa [4]; P. aeruginosa ATCC 10145, 1:1 combination with Novobiocin): 1 micrograms/mL
MIC A. baumannii NCTC 13424 (Acinetobacter baumannii [5]; Second Agent none (Table 7E)): 0.125 micrograms/mL
MIC A. baumannii ATCC BAA-747 (Acinetobacter baumannii [5]; [11]): 0.25 micrograms/mL
MIC A. baumannii NCTC 13424 (Acinetobacter baumannii [5]; [11]): 0.5 micrograms/mL
MIC A. baumannii NCTC 13424 (Acinetobacter baumannii [5]; Table 7F, A. baumannii NCTC 13424, second agent none): 0.125 micrograms/mL
MIC A. baumannii NCTC 13424 (Acinetobacter baumannii [5]; Table 7H, A. baumannii NCTC 13424, second agent none): 0.125 micrograms/mL
MIC A. baumannii ATCC13424 (Acinetobacter baumannii [5]; in the absence of Rifampicin, strain ATCC13424): 1 micrograms/mL
MIC A. baumannii ATCCBAA-747 (Acinetobacter baumannii [5]; in the absence of Rifampicin, strain ATCCBAA-747): 0.5 micrograms/mL
MIC A. baumannii CCUG57249 (Acinetobacter baumannii [5]; in the absence of Rifampicin, strain CCUG 57249): 1 micrograms/mL
MIC A. baumannii NCTC 13423 (Acinetobacter baumannii [5]; in the absence of Rifampicin, strain NCTC13423): 0.5 micrograms/mL
MIC E. coli ATCC25922 (Escherichia coli [6]; Second Agent none (Table 7E)): 0.5 micrograms/mL
MIC E. coli NCTC 13441 (Escherichia coli [6]; Second Agent none (Table 7E)): 1 micrograms/mL
MIC E. coli ATCC25922 (Escherichia coli [6]; [11]): 0.25 micrograms/mL
MIC E. coli NCTC 13441 (Escherichia coli [6]; [11]): 0.25 micrograms/mL
MIC E. coli ATCC25922 (Escherichia coli [6]; Table 7F, E. coli ATCC25922, second agent none): 0.5 micrograms/mL
MIC E. coli NCTC 13441 (Escherichia coli [6]; Table 7F, E. coli NCTC 13441, second agent none): 1 micrograms/mL
MIC E. coli ATCC25922 (Escherichia coli [6]; Table 7G, E. coli ATCC25922, second agent none): 0.5 micrograms/mL
MIC E. coli ATCC25922 (Escherichia coli [6]; Table 7H, E. coli ATCC25922, second agent none): 0.5 micrograms/mL
MIC E. coli NCTC 13441 (Escherichia coli [6]; Table 7H, E. coli NCTC 13441, second agent none): 1 micrograms/mL
MIC E. coli ATCC25922 (Escherichia coli [6]; Table 7I, E. coli ATCC25922, second agent none): 0.5 micrograms/mL
MIC E. coli ATCC25922 (Escherichia coli [6]; in the absence of Rifampicin, strain ATCC25922): 1 micrograms/mL
MIC E. coli NCTC9001 (Escherichia coli [6]; in the absence of Rifampicin, strain NCTC9001): 1 micrograms/mL
MIC K. pneumoniae CCUG 59349 (Klebsiella pneumoniae [7]; Second Agent none (Table 7E)): 0.5 micrograms/mL
MIC K. pneumoniae ATCC 4352 (Klebsiella pneumoniae [7]; [11]): 0.25 micrograms/mL
MIC K. pneumoniae ATCC BAA-2146 (Klebsiella pneumoniae [7]; [11]): 0.5 micrograms/mL
MIC K. pneumoniae CCUG 59349 (Klebsiella pneumoniae [7]; Table 7F, K. pneumoniae CCUG 59349, second agent none): 0.5 micrograms/mL
MIC K. pneumoniae CCUG 59349 (Klebsiella pneumoniae [7]; Table 7H, K. pneumoniae CCUG 59349, second agent none): 0.5 micrograms/mL
MIC K. pneumoniae ATCC 4352 (Klebsiella pneumoniae [7]; in the absence of Rifampicin, strain ATCC 4352): 1 micrograms/mL
MIC K. pneumoniae ATCC-BAA2146 (Klebsiella pneumoniae [7]; in the absence of Rifampicin, strain ATCC-BAA2146): 2 micrograms/mL
MIC K. pneumoniae CCUG-59348 (Klebsiella pneumoniae [7]; in the absence of Rifampicin, strain CCUG-59348): 16 micrograms/mL
MIC K. pneumoniae NCTC-13438 (Klebsiella pneumoniae [7]; in the absence of Rifampicin, strain NCTC-13438): 1 micrograms/mL
MIC P. aeruginosa ATCC 10145 (Pseudomonas aeruginosa [8]; Second Agent none (Table 7E)): 0.5 micrograms/mL
MIC P. aeruginosa ATCC 27853 (Pseudomonas aeruginosa [8]; [11]): 0.5 micrograms/mL
MIC P. aeruginosa CCUG 59347 (Pseudomonas aeruginosa [8]; [11]): 0.5 micrograms/mL
MIC P. aeruginosa ATCC 10145 (Pseudomonas aeruginosa [8]; Table 7F, P. aeruginosa ATCC 10145, second agent none): 0.5 micrograms/mL
MIC P. aeruginosa ATCC 10145 (Pseudomonas aeruginosa [8]; Table 7H, P. aeruginosa ATCC 10145, second agent none): 0.5 micrograms/mL
MIC P. aeruginosa ATCC 27853 (Pseudomonas aeruginosa [8]; in the absence of Rifampicin, strain ATCC27853): 0.5 micrograms/mL
MIC P. aeruginosa ATCC-47 (Pseudomonas aeruginosa [8]; in the absence of Rifampicin, strain ATCC-47): 2 micrograms/mL
MIC P. aeruginosa ATCCCRM-9027 (Pseudomonas aeruginosa [8]; in the absence of Rifampicin, strain ATCCCRM-9027): 0.25 micrograms/mL
MIC P. aeruginosa CCUG 59626 (Pseudomonas aeruginosa [8]; in the absence of Rifampicin, strain CCUG 59626): 0.5 micrograms/mL
Mean log10 CFU reduction vs. control ([9]; Table 11, total daily dosage 3 mg/kg (sulfate salt), 24 h post-infection): 2.5 ^a log10 CFU
Mean log10 CFU reduction vs. control ([9]; Table 11, total daily dosage 10 mg/kg (sulfate salt), 24 h post-infection): 4.2 ^a log10 CFU
Mean log10 CFU reduction vs. control ([9]; Table 11A, separate study, total daily dosage 3 mg/kg (sulfate salt)): 3.75 log10 CFU
Mean log10 CFU reduction vs. control ([9]; Table 11A, separate study, total daily dosage 10 mg/kg (sulfate salt)): 4.87 log10 CFU
